# Test results taken from ChEMBL document CHEMBL6114942, “(E)-3-(3-([1,1'-Biphenyl]-4-yl)-1-phenyl-1H-pyrazol-4-yl)-1-phenylprop-2-en-1-ones inducing reactive oxygen species generation through glutathione depletion” (Bioorg Med Chem Lett, 2025).
# The source made the active and inactive calls. The rule behind the calls is not given here.
# Assays:
# [1] = system: MIA PaCa-2; assay: Induction of reactive oxygen species generation in human MIA PaCa-2 cells assessed as ROS level at 50 uM measured after 12 hrs by DCF-DA staining based flow cytometry (reference value: 461.5 +/- 57.3); type: functional
# [2] = system: MIA PaCa-2; assay: Induction of reactive oxygen species generation in human MIA PaCa-2 cells at 50 uM measured after 12 hrs by DCF-DA staining based phase-contrast fluorescence microscopy; type: functional, cell-based
# [3] = Induction of GSH depletion in human Primary pancreatic epithelial cells assessed as cell population with low GSH level at 50 uM measured after 18 hrs by VB-48/propidium iodide staining based flow cytometry (reference value: 7%); type: toxicity
# [4] = Induction of GSH depletion in human Primary pancreatic epithelial cells assessed as cell population with high GSH level at 50 uM measured after 18 hrs by VB-48/propidium iodide staining based flow cytometry (reference value: 93%); type: toxicity
# [5] = system: MIA PaCa-2; assay: Induction of GSH depletion in human MIA PaCa-2 assessed as cell population with low GSH level at 50 uM measured after 18 hrs by VB-48/propidium iodide staining based flow cytometry (reference value: 5%); type: functional
# [6] = system: MIA PaCa-2; assay: Induction of GSH depletion in human MIA PaCa-2 assessed as cell population with high GSH level at 50 uM measured after 18 hrs by VB-48/propidium iodide staining based flow cytometry (reference value: 95%); type: functional
# [7] = system: MIA PaCa-2; assay: Induction of apoptosis in human MIA PaCa-2 cells measured after 24 to 48 hrs by Annexin-V-FITC/propidium iodide staining based flow cytometry; type: functional, cell-based; details: dose 50-100 µM, time 24-48 hrs
# [8] = system: MIA PaCa-2; assay: Induction of apoptosis in human MIA PaCa-2 cells assessed as viable cells at 50 uM measured after 24 hrs by Annexin-V-FITC/propidium iodide staining based flow cytometry (reference value: 74%); type: functional; details: read-out: Activity
# [9] = system: MIA PaCa-2; assay: Induction of apoptosis in human MIA PaCa-2 cells assessed as early apoptotic cells at 50 uM measured after 24 hrs by Annexin-V-FITC/propidium iodide staining based flow cytometry (reference value: 13%); type: functional
# [10] = system: MIA PaCa-2; assay: Induction of apoptosis in human MIA PaCa-2 cells assessed as late apoptotic cells at 50 uM measured after 24 hrs by Annexin-V-FITC/propidium iodide staining based flow cytometry (reference value: 4%); type: functional
# [11] = system: MIA PaCa-2; assay: Induction of apoptosis in human MIA PaCa-2 cells assessed as necrotic cells at 50 uM measured after 24 hrs by Annexin-V-FITC/propidium iodide staining based flow cytometry (reference value: 9%); type: functional
# [12] = system: MIA PaCa-2; assay: Induction of apoptosis in human MIA PaCa-2 cells assessed as viable cells at 100 uM measured after 24 hrs by Annexin-V-FITC/propidium iodide staining based flow cytometry (reference value: 74%); type: functional; details: read-out: Activity
# [13] = system: MIA PaCa-2; assay: Induction of apoptosis in human MIA PaCa-2 cells assessed as early apoptotic cells at 100 uM measured after 24 hrs by Annexin-V-FITC/propidium iodide staining based flow cytometry (reference value: 13%); type: functional
# [14] = system: MIA PaCa-2; assay: Induction of apoptosis in human MIA PaCa-2 cells assessed as late apoptotic cells at 100 uM measured after 24 hrs by Annexin-V-FITC/propidium iodide staining based flow cytometry (reference value: 4%); type: functional
# [15] = system: MIA PaCa-2; assay: Induction of apoptosis in human MIA PaCa-2 cells assessed as necrotic cells at 100 uM measured after 24 hrs by Annexin-V-FITC/propidium iodide staining based flow cytometry (reference value: 9%); type: functional
# [16] = system: MIA PaCa-2; assay: Induction of apoptosis in human MIA PaCa-2 cells assessed as viable cells at 50 uM measured after 48 hrs by Annexin-V-FITC/propidium iodide staining based flow cytometry (reference value: 71%); type: functional; details: read-out: Activity
# [17] = system: MIA PaCa-2; assay: Induction of apoptosis in human MIA PaCa-2 cells assessed as early apoptotic cells at 50 uM measured after 48 hrs by Annexin-V-FITC/propidium iodide staining based flow cytometry (reference value: 15%); type: functional
# [18] = system: MIA PaCa-2; assay: Induction of apoptosis in human MIA PaCa-2 cells assessed as late apoptotic cells at 50 uM measured after 48 hrs by Annexin-V-FITC/propidium iodide staining based flow cytometry (reference value: 3%); type: functional
# [19] = system: MIA PaCa-2; assay: Induction of apoptosis in human MIA PaCa-2 cells assessed as necrotic cells at 50 uM measured after 48 hrs by Annexin-V-FITC/propidium iodide staining based flow cytometry (reference value: 11%); type: functional
# [20] = system: MIA PaCa-2; assay: Induction of apoptosis in human MIA PaCa-2 cells assessed as viable cells at 100 uM measured after 48 hrs by Annexin-V-FITC/propidium iodide staining based flow cytometry (reference value: 71%); type: functional; details: read-out: Activity
# [21] = system: MIA PaCa-2; assay: Induction of apoptosis in human MIA PaCa-2 cells assessed as early apoptotic cells at 100 uM measured after 48 hrs by Annexin-V-FITC/propidium iodide staining based flow cytometry (reference value: 15%); type: functional
# [22] = system: MIA PaCa-2; assay: Induction of apoptosis in human MIA PaCa-2 cells assessed as late apoptotic cells at 100 uM measured after 48 hrs by Annexin-V-FITC/propidium iodide staining based flow cytometry (reference value: 3%); type: functional
# [23] = system: MIA PaCa-2; assay: Induction of apoptosis in human MIA PaCa-2 cells assessed as necrotic cells at 100 uM measured after 48 hrs by Annexin-V-FITC/propidium iodide staining based flow cytometry (reference value: 11%); type: functional
# [24] = system: MIA PaCa-2; assay: Inhibition of GST activity in human MIA PaCa-2 cells at 50 uM using CDNB as substrate measured after 6 hrs by spectrophotometric method; type: cell-based
smiles,measurement,setting,value
COc1cccc(O)c1C(=O)/C=C/c1cn(-c2ccccc2)nc1-c1ccc(-c2ccccc2)cc1,Activity,[1],580.5
CC1=CC(=O)c2ccccc2C1=O [MENADIONE],Activity,[1],1160.5
COc1ccc(C(=O)/C=C/c2cn(-c3ccc(OC)cc3)nc2-c2ccc(-c3ccccc3)cc2)cc1,Activity,[2],Active; Most Effective Among The Tested Compounds
same,Activity,[3],14%
same,Activity,[4],86%
same,Activity,[5],44%
same,Activity,[6],55%
same,Activity,[7],Dose-dependent-effect
same,viability at 50 µM,[8],49%
same,Activity,[9],39%
same,Activity,[10],7%
same,Activity,[11],6%
same,viability at 100 µM,[12],30%
same,Activity,[13],60%
same,Activity,[14],6%
same,Activity,[15],3%
same,viability at 50 µM,[16],22%
same,Activity,[17],65%
same,Activity,[18],8%
same,Activity,[19],5%
same,viability at 100 µM,[20],11%
same,Activity,[21],74%
same,Activity,[22],11%
same,Activity,[23],4%
same,Activity,[1],799.5
same,inhibition,[24],Active
COc1ccccc1C(=O)/C=C/c1cn(-c2ccccc2)nc1-c1ccc(-c2ccccc2)cc1,Activity,[1],619.5
O=C(/C=C/c1cn(-c2ccccc2)nc1-c1ccc(-c2ccccc2)cc1)c1ccc(O)cc1,Activity,[1],639
COc1ccc(-n2cc(/C=C/C(=O)c3ccccc3OC)c(-c3ccc(-c4ccccc4)cc3)n2)cc1,Activity,[1],535.5
COc1cccc(C(=O)/C=C/c2cn(-c3ccc(F)cc3)nc2-c2ccc(-c3ccccc3)cc2)c1,Activity,[1],675
COc1ccc(C(=O)/C=C/c2cn(-c3ccc(F)cc3)nc2-c2ccc(-c3ccccc3)cc2)cc1OC,Activity,[1],534.5
COc1ccc(C(=O)/C=C/c2cn(-c3ccc(F)cc3)nc2-c2ccc(-c3ccccc3)cc2)cc1,Activity,[1],529.5
COc1cccc(C(=O)/C=C/c2cn(-c3ccccc3)nc2-c2ccc(-c3ccccc3)cc2)c1,Activity,[1],680
O=C(/C=C/c1cn(-c2ccccc2)nc1-c1ccc(-c2ccccc2)cc1)c1cc(Cl)ccc1O,Activity,[1],661
COc1ccc(-n2cc(/C=C/C(=O)c3cccc(OC)c3)c(-c3ccc(-c4ccccc4)cc3)n2)cc1,Activity,[1],720.5
O=C(/C=C/c1cn(-c2ccccc2)nc1-c1ccc(-c2ccccc2)cc1)c1cc(F)ccc1O,Activity,[1],540
